We go through two compounds from patent publication US8084586B2, “Doxorubicin immunoassay” (Saladax Biomedical, Inc., priority 2005, dated 2011).

The test system of assay [1] is antibodies to doxorubicin [5]-BTG (Immunogen Example 4a, Example 8). Kind of assay: Indirect competitive microtiter plate ELISA, cross-reactivity, antiserum from doxorubicin [5]-BTG immunogen (Example 4a). The assay is classed as binding, mouse (BALB/c). Conditions: relative to doxorubicin. The procedure: Mice were boosted once four weeks after the initial injection with 100 μg/mouse of the same immunogens emulsified in Incomplete Freund's Adjuvant. Ten and 28 days after the boost test bleeds from each mouse were obtained by orbital bleed. The anti-serum from the day 28 test bleeds contained doxorubicin antibodies evaluated in Examples 10a and 11. […] For the purpose of screening antibodies and measuring doxorubicin concentration by the Enzyme-Linked Immunosorbent Assay (ELISA) method polystyrene microtiter plates (Nunc MaxiSorp F8 Immunomodules) optimized for protein binding and containing 96 wells per plate were used. […] The wells were washed with 0.005 M MES, pH 6 and then were blocked with 375 μL of 5% sucrose, 0.2% sodium caseinate solution for 30 minutes at room temperature. After removal of the post-coat solution the plates were dried at 37° C. overnight. […] The wells were washed with 0.005 M MES, pH 6 and then were blocked with 375 μL of 5% sucrose, 0.2% sodium caseinate solution for 30 minutes at room temperature. After removal of the post-coat solution the plates were dried at 37° C. overnight. For the purpose of screening antibodies and measuring doxorubicin concentration by the Enzyme-Linked Immunosorbent Assay (ELISA) method polystyrene microtiter plates (Nunc MaxiSorp F8 Immunomodules) optimized for protein binding and containing 96 wells per plate were used. […] The wells were washed with 0.005 M MES, pH 6 and then were blocked with 375 μL of 5% sucrose, 0.2% sodium caseinate solution for 30 minutes at room temperature. After removal of the post-coat solution the plates were dried at 37° C. overnight. Antibodies were screened by Enzyme-Linked Immunosorbent Assay (ELISA) method. […] During this incubation antibody binds to the doxorubicin [5]-conjugate in the well. […] After an incubation of 10 minutes at room temperature with shaking, during which the goat anti-mouse antibody—HRP enzyme conjugate binds to doxorubicin antibodies in the wells, the plates were again washed three times to remove unbound goat anti-mouse antibody—HRP enzyme conjugate. To develop a measurable color in the wells washing was followed by the addition of 100 μL of TMB (TMB Liquid Substrate), a substrate for HRP, to develop color during a 10 minute incubation with shaking at room temperature. Following the incubation for color development, 50 μL of stop solution (1.5% sodium fluoride in di H2O) was added to each well to stop the color development and after 10 seconds of shaking the absorbance was determined at 650 nm with a 96-well plate reader. The amount of antibody in a well was proportional to the absorbance measured and was expressed as the dilution (titer) resulting in an absorbance of 1.5. Titers were determined by graphing log antibody dilution of the antibody measured (x-axis) vs. absorbance 650 nm (y-axis) and extrapolating the titer at an absorbance of 1.5. The titer determined the concentration (dilution) of antibody used in the indirect competitive Microtiter plate assay described in Example 11. Doxorubicin concentrations were measured by an indirect competitive Enzyme-Linked Immunosorbent Assay (ELISA) method This method for measuring doxorubicin concentrations was performed with the microtiter plates that were sensitized with doxorubicin [1]-BSA described in Examples 9b, c, d. […] During the 10 minute incubation (R.T., with shaking) there is a competition of antibody binding for the doxorubicin conjugate in the well and the analyte in solution. […]

In assay [2] the test system is antibodies to doxorubicin [5]-KLH (Immunogen Example 4b, Example 8). Put plainly: Indirect competitive microtiter plate ELISA, cross-reactivity, antiserum from doxorubicin [5]-KLH immunogen (Example 4b). Conditions: relative to doxorubicin. It counts as binding, mouse (BALB/c). The procedure:
Mice were boosted once four weeks after the initial injection with 100 μg/mouse of the same immunogens emulsified in Incomplete Freund's Adjuvant. Ten and 28 days after the boost test bleeds from each mouse were obtained by orbital bleed. The anti-serum from the day 28 test bleeds contained doxorubicin antibodies evaluated in Examples 10a and 11. […] For the purpose of screening antibodies and measuring doxorubicin concentration by the Enzyme-Linked Immunosorbent Assay (ELISA) method polystyrene microtiter plates (Nunc MaxiSorp F8 Immunomodules) optimized for protein binding and containing 96 wells per plate were used. […] The wells were washed with 0.005 M MES, pH 6 and then were blocked with 375 μL of 5% sucrose, 0.2% sodium caseinate solution for 30 minutes at room temperature. After removal of the post-coat solution the plates were dried at 37° C. overnight. For the purpose of screening antibodies and measuring doxorubicin concentration by the Enzyme-Linked Immunosorbent Assay (ELISA) method polystyrene microtiter plates (Nunc MaxiSorp F8 Immunomodules) optimized for protein binding and containing 96 wells per plate were used. […] The wells were washed with 0.005 M MES, pH 6 and then were blocked with 375 μL of 5% sucrose, 0.2% sodium caseinate solution for 30 minutes at room temperature. After removal of the post-coat solution the plates were dried at 37° C. overnight. For the purpose of screening antibodies and measuring doxorubicin concentration by the Enzyme-Linked Immunosorbent Assay (ELISA) method polystyrene microtiter plates (Nunc MaxiSorp F8 Immunomodules) optimized for protein binding and containing 96 wells per plate were used. […] Following the incubation for color development, 50 μL of stop solution (1.5% sodium fluoride in di H2O) was added to each well to stop the color development and after 10 seconds of shaking the absorbance was determined at 650 nm with a 96-well plate reader. The amount of antibody in a well was proportional to the absorbance measured and was expressed as the dilution (titer) resulting in an absorbance of 1.5. Titers were determined by graphing log antibody dilution of the antibody measured (x-axis) vs. absorbance 650 nm (y-axis) and extrapolating the titer at an absorbance of 1.5. The titer determined the concentration (dilution) of antibody used in the indirect competitive Microtiter plate assay described in Example 11. Doxorubicin concentrations were measured by an indirect competitive Enzyme-Linked Immunosorbent Assay (ELISA) method This method for measuring doxorubicin concentrations was performed with the microtiter plates that were sensitized with doxorubicin [1]-BSA described in Examples 9b, c, d. […]
(ELISA stands for enzyme-linked immunosorbent assay.)

Assay [3] has as its system monoclonal antibody to doxorubicin [4]-BTG (Immunogen Example 3a, Example 7). Put plainly: Indirect competitive microtiter plate ELISA, cross-reactivity, monoclonal antibody from doxorubicin [4]-BTG immunogen (Example 3a). Conditions: relative to doxorubicin. The assay is classed as binding, mouse (BALB/c). The procedure:
(§1) Two groups of ten Female BALB/c mice were immunized i.p. one with 100 μg/mouse of doxorubicin [4]-BTG immunogen prepared in Example 3a and the other with 100 μg/mouse of doxorubicin [4]-KLH immunogen prepared in Example 3b emulsified in Complete Freund's adjuvant. The mice were boosted once four weeks after the initial injection with 100 μg/mouse of the same immunogens emulsified in Incomplete Freund's Adjuvant. Ten days after the boost test bleeds from each mouse were obtained by orbital bleed. For monoclonal antibodies depending on the immunogen, age and rest period of the mouse starting four days before the fusion, the mice were injected i.p. with either 400 μg (3 days before fusion), 200 μg (2 days before fusion), and […] (1 day before fusion) of doxorubicin [4]-BTG immunogen prepared in Example 3a in PBS or 100 ug on each day of doxorubicin [4]-KLH immunogen prepared in Example 3b in PBS on three successive days. According to the protocol of Coligan et al. spleen cells were isolated from the selected mice and fused with 2×10^7 cells of the myeloma fusion partner cell line (SP2/0) using 50% polyethylene glycol 1500 [Coligan, J. E. et al., eds., Current Protocols in Immunology, 2.5.1-2.5.8, (1992), Wiley & Sons, NY.] To grow the fused cells into antibody producing colonies according to the method of Coligan et al. the fused cells were plated on 10 96-well plates in a conventional HAT (hypoxanthine, aminopterin and thymidine) selective growth medium such as DMEM/F12 (Dulbecco's Modified Eagle's Medium 1:1 with L-glutamine and HEPES) supplemented with 20% fetal bovine serum alternative, and containing 2% L-glutamine (100 mM) and 2% 50× HAT. Two weeks later, the hybridoma supernatant was assayed for the presence of anti-doxorubicin antibodies by ELISA as described in Example 10b. Positive wells were expanded and again screened by the same method. The positive clones were confirmed for doxorubicin binding by a competitive ELISA as described in Example 11 or subcloned directly. Clones positive by ELISA were subcloned once or twice by limiting dilution according to the method disclosed in Coligan, J. E. et al., eds., Current Protocols in Immunology, 2.5.8-2.5.17, (1992), Wiley & Sons, NY.
For the purpose of screening antibodies and measuring doxorubicin concentration by the Enzyme-Linked Immunosorbent Assay (ELISA) method polystyrene microtiter plates (Nunc MaxiSorp F8 Immunomodules) optimized for protein binding and containing 96 wells per plate were used. Each well was coated with doxorubicin [5]-BSA 3:1 conjugate (prepared as in Example 6b) by adding 300 μL of doxorubicin [1]-BSA conjugate at 10 μg/mL in 0.01 M MES, pH=6, and incubating for three hours at room temperature. […]

Assay [4] concerns monoclonal antibody to doxorubicin [4]-KLH (Immunogen Example 3b, Example 7). Put plainly: Indirect competitive microtiter plate ELISA, cross-reactivity, monoclonal antibody from doxorubicin [4]-KLH immunogen (Example 3b). It counts as binding, mouse (BALB/c). Conditions: relative to doxorubicin. The procedure: as §1
(§2) For the purpose of screening antibodies and measuring doxorubicin concentration by the Enzyme-Linked Immunosorbent Assay (ELISA) method polystyrene microtiter plates (Nunc MaxiSorp F8 Immunomodules) optimized for protein binding and containing 96 wells per plate were used. Each well was coated with doxorubicin [5]-BSA 3:1 conjugate (prepared as in Example 6b) by adding 300 μL of doxorubicin [1]-BSA conjugate at 10 μg/mL in 0.01 M MES, pH=6, and incubating for three hours at room temperature. The wells were washed with 0.005 M MES, pH 6 and then were blocked with 375 μL of 5% sucrose, 0.2% sodium caseinate solution for 30 minutes at room temperature. After removal of the post-coat solution the plates were dried at 37° C. overnight.
as §2, with “[1]-BSA 1:1” for “[5]-BSA 3:1”, “6c)” for “6b)”, “[5]-BSA” for “[1]-BSA”
For the purpose of screening antibodies and measuring doxorubicin concentration by the Enzyme-Linked Immunosorbent Assay (ELISA) method polystyrene microtiter plates (Nunc MaxiSorp F8 Immunomodules) optimized for protein binding and containing 96 wells per plate were used. […]

The test system of assay [5] is antibody as produced in Examples 7 and 8 with immunogen of Examples 3a, 3b, 4a & b. Kind of assay: Competitive immunoassay cross-reactivity, antibodies of Examples 7 and 8 taken together. The assay is classed as binding, mouse. Conditions: antibodies of Examples 7 and 8, immunogens of Examples 3a. The procedure:
The present invention relates to novel antibodies and monoclonal antibodies to doxorubicin. The antisera of the invention can be conveniently produced by immunizing host animals with the immunogens of this invention. Suitable host animals include rodents, such as, for example, mice, rats, rabbits, guinea pigs and the like, or higher mammals such as goats, sheep, horses and the like. […] Doxorubicin concentrations were measured by an indirect competitive Enzyme-Linked Immunosorbent Assay (ELISA) method This method for measuring doxorubicin concentrations was performed with the microtiter plates that were sensitized with doxorubicin [1]-BSA described in Examples 9b, c, d. […] The assay was performed by incubating 50 μL of the analytes to be measured with 50 μL of antibody (produced in Examples 7 and 8 with immunogens of Examples 3a, 3b, 4a and 4b) diluted to a titer determined in Example 10a. […] Following the incubation for color development, 50 μL of stop solution (1.5% sodium fluoride in di H2O) was added to each well to stop the color development and after 10 seconds of shaking the absorbance was determined at 650 nm with a 96-well plate reader. The amount of antibody in a well was proportional to the absorbance measured and inversely proportional to the amount of doxorubicin in the sample. […]

[6] abbreviates: plate sensitized as in Example 9b (doxorubicin [5]-BSA 3:1).
Setting [7] is: plate sensitized as in Example 9c (doxorubicin [5]-BSA 1:1).
Where [8] appears, read: plate sensitized as in Example 9d (doxorubicin [5]-BSA 1:1 thiol capped).

Take `COc1cccc2c1C(=O)c1c(O)c3c(c(O)c1C2=O)C[C@@](O)(C(=O)CO)C[C@@H]3O[C@H]1C[C@H](N)[C@H](O)[C@H](C)O1.Cl` [doxorubicin]: the “% cross-reactivity” value in assay [1] (setting [6]), in assay [1] (setting [7]), in assay [1] (setting [8]), in assay [2] (setting [6]), in assay [2] (setting [7]) and in assay [2] (setting [8]) was 100% each time. Further, the “% cross-reactivity” value in assay [3] (setting [6]), in assay [3] (setting [7]), in assay [4] (setting [6]), in assay [4] (setting [7]) and in assay [4] (setting [8]) was 100% in each case.

With `COc1cccc2c1C(=O)c1c(O)c3c(c(O)c1C2=O)C[C@@](O)(C(=O)CO)C[C@@H]3O` [doxorubicin-aglycone, doxorubicin aglycone], the “% cross-reactivity” value in assay [1] (setting [6]) amounted to 5.7%; in assay [1] (setting [7]) it was 10.0%; in assay [1] (setting [8]), 8.8%; in assay [2] (setting [6]), 8.6%; in assay [3] (setting [6]), 10.6%; in assay [3] (setting [7]), 12.9%. The entries for the “% cross-reactivity” value in assay [4] (setting [6]), in assay [4] (setting [7]) and in assay [4] (setting [8]) were 1.5%, 3.9% and 3.0%, respectively. The “percent cross-reactivity relative to doxorubicin” value in assay [5] is on record as “less than or equal to 10%”.
